Experimental data reported in patent US10899758B2, “Inhibitors of the menin-MLL interaction” (Vitae Pharmaceuticals, LLC, priority 2016, dated 2021).
Like-named read-outs stand apart in the source and are kept apart here.

Experiments:
[1] = biological target: T1, menin/MLL binding (biotinylated wild-type or mutated menin and MLL-AF9 fusion protein) (Homo sapiens, UniProt O00255); experiment: Assay 1 (Binding Assay): AlphaLISA menin/MLL binding; conditions: 5 nM biotinylated menin, MLL-AF9-FLAG lysate
T1 construct: biotinylated (1) wild-type menin or (2) mutated menin (described in Nature (2012) Vol. 482, pp. 542-548); fused on or other part: Biotin attached chemically (Sulfo-NHS-Biotin); no fused second protein is printed for menin
T1 sequence (O00255 1-459 limits assumed): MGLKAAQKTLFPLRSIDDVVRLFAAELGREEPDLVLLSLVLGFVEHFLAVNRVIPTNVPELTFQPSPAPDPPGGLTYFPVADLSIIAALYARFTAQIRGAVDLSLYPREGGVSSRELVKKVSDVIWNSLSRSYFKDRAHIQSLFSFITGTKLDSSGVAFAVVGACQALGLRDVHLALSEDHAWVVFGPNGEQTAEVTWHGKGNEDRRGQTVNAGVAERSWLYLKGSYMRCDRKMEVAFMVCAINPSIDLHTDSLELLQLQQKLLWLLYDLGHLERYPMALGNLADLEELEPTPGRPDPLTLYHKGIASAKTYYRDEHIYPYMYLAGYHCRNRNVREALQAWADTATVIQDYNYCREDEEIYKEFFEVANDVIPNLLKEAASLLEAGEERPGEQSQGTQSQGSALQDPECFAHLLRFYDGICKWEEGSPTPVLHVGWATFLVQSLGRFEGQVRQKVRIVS
Method in brief: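 Biotinylated E. coli-expressed menin (wild-type or mutant), 5 nM, incubated 30 min RT with compound and HEK293 lysate of MLL1-1,396–AF9-FLAG in pH 7.4 Tris buffer, 5% DMSO, 1 mM DTT. Anti-FLAG acceptor and streptavidin donor beads added, 60 min RT, AlphaLISA signal read. IC50 from four-parameter fit of % inhibition.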

[2] = test system: human acute monocytic leukemia cell line MV-4-11; experiment: Assay 2 (Cell Proliferation Assay), ATP quantitation (CellTiter-Glo); type: cell-based; conditions: MV-4-11 cells, read-out: Assay 2 (EC50, inhibition of cell proliferation)
Protocol: Potencies of inhibitor compounds against cell proliferation was assessed against the human acute monocytic leukemia cell line MV-4-11 (ATCC® CRL-9591™) based on ATP quantitation. MV-4-11 cells or toxicity control HL-60 cells (ATCC® CCL-240™) were incubated in 96-well tissue culture plates (1.67×10^4 cells in 200 μL culture media containing 10% FBS per well) with or without test compound for 72 h at 37° C., 5% CO2. After incubation, each well was mixed by pipetting and 95 μL from each well was transferred to a well in 96-well black OptiPlate® plates (PerkinElmer). An equal volume of CellTiter-Glo® Luminescent Cell Viability Assay reagent (Promega) was added to each well, followed by mixing for 5 min on an orbital plate shaker. Luminescence was measured on a Wallac EnVision 2104 Multilabel Reader (PerkinElmer) to quantitate ATP. Percent inhibition of cell proliferation by test compounds was calculated based on uninhibited cell growth (DMSO) versus cells treated with a potent menin inhibitor at a concentration yielding at least 100×LD50.

SMILES	IC50 [1] [nM]	EC50 ([2]; Homo sapiens, MV4-11, 72 h) [nM]	EC50 ([2]; 72 h) [nM]
CC(C)N(C)C(=O)c1cc(F)ccc1-n1cc(C2CCC(N(C)C)CC2)c2ccncc21 (single isomer, unassigned) [Example 54A, 2-(3-(4-(dimethylamino)cyclohexyl)-1H-pyrrolo[2,3-c]pyridin-1-yl)-5-fluoro-N-isopropyl-N-methylbenzamide]	100 to 1000	–	≥ 1000
CC(C)N(C)C(=O)c1cc(F)ccc1-n1cc(C2CCN(Cc3ccc4[nH]c(=O)[nH]c4c3)CC2)c2ccncc21 [Example 5, 5-fluoro-N-isopropyl-N-methyl-2-(3-(1-((2-oxo-2,3-dihydro-1H-benzo[d]imidazol-5-yl)methyl)piperidin-4-yl)-1H-pyrrolo[2,3-c]pyridin-1-yl)benzamide]	< 100	100 to 1000	–
CC(C)N(C)C(=O)c1cc(F)ccc1-n1cc(C2CCN(CCC3CCOCC3)CC2)c2ccncc21 [Example 6, 5-fluoro-N-isopropyl-N-methyl-2-(3-(1-(2-(tetrahydro-2H-pyran-4-yl)ethyl)piperidin-4-yl)-1H-pyrrolo[2,3-c]pyridin-1-yl)benzamide]	< 100	100 to 1000	–
CC(C)N(C)C(=O)c1cc(F)ccc1-n1cc(C2CCN(Cc3ccc4[nH]c(C#N)cc4c3)CC2)c2ccncc21 [Example 7, 2-(3-(1-((2-cyano-1H-indol-5-yl)methyl)piperidin-4-yl)-1H-pyrrolo[2,3-c]pyridin-1-yl)-5-fluoro-N-isopropyl-N-methylbenzamide]	< 100	< 100	–
CC(C)N(C)C(=O)c1cc(F)ccc1-n1cc(C2CCN(Cc3ccc4cc(C#N)[nH]c4c3)CC2)c2ccncc21 [Example 8, 2-(3-(1-((2-cyano-1H-indol-6-yl)methyl)piperidin-4-yl)-1H-pyrrolo[2,3-c]pyridin-1-yl)-5-fluoro-N-isopropyl-N-methylbenzamide]	< 100	< 100	–
CC(C)N(C)C(=O)c1cc(F)ccc1-n1cc(C2CCN(Cc3ccc(F)cc3)CC2)c2ccncc21 [Example 9, 5-fluoro-2-(3-(1-(4-fluorobenzyl)piperidin-4-yl)-1H-pyrrolo[2,3-c]pyridin-1-yl)-N-isopropyl-N-methylbenzamide]	< 100	100 to 1000	–
CC(C)N(C)C(=O)c1cc(F)ccc1-n1cc(C2CCN(Cc3ccc(Cl)cc3)CC2)c2ccncc21 [Example 10, 2-(3-(1-(4-chorobenzyl)piperidin-4-yl)-1H-pyrrolo[2,3-c]pyridin-1-yl)-5-fluoro-N-isopropyl-N-methylbenzamide]	< 100	100 to 1000	–
CC(C)N(C)C(=O)c1cc(F)ccc1-n1cc(C2CCN(Cc3ccc(C#N)cc3)CC2)c2ccncc21 [Example 12, 2-(3-(1-(4-cyanobenzyl)piperidin-4-yl)-1H-pyrrolo[2,3-c]pyridin-1-yl)-5-fluoro-N-isopropyl-N-methylbenzamide]	< 100	100 to 1000	–
Cc1ccccc1CN1CCC(c2cn(-c3ccc(F)cc3C(=O)N(C)C(C)C)c3cnccc23)CC1 [Example 14, 5-fluoro-N-isopropyl-N-methyl-2-(3-(1-(2-methylbenzyl)piperidin-4-yl)-1H-pyrrolo[2,3-c]pyridin-1-yl)benzamide]	< 100	100 to 1000	–
CC(C)N(C)C(=O)c1cc(F)ccc1-n1cc(C2CCN(Cc3ccccc3Cl)CC2)c2ccncc21 [Example 15, 2-(3-(1-(2-chlorobenzyl)piperidin-4-yl)-1H-pyrrolo[2,3-c]pyridin-1-yl)-5-fluoro-N-isopropyl-N-methylbenzamide]	< 100	100 to 1000	–
CC(C)N(C)C(=O)c1cc(F)ccc1-n1cc(C2CCN(CC3CC(F)(F)C3)CC2)c2ccncc21 [Example 16, 2-(3-(1-((3,3-difluorocyclobutyl)methyl)piperidin-4-yl)-1H-pyrrolo[2,3-c]pyridin-1-l)-5-fluoro-N-isopropyl-N-methylbenzamide]	< 100	100 to 1000	–
CC(=O)N[C@H]1CC[C@H](CCN2CCC(c3cn(-c4ccc(F)cc4C(=O)N(C)C(C)C)c4cnccc34)CC2)CC1 [Example 18, 2-(3-(1-(2-(trans-4-acetamidocyclohexyl)ethyl)piperidin-4-yl)-1H-pyrrolo[2,3-c]pyridin-1-yl)-5-fluoro-N-isopropyl-N-methylbenzamide]	< 100	100 to 1000	–
CC(C)N(C)C(=O)c1cc(F)ccc1-n1cc(C2CCN(CC[C@H]3CC[C@H](NC(=O)OC(C)(C)C)CC3)CC2)c2ccncc21 [Example 18A, tert-butyl (trans-4-(2-(4-(1-(4-fluoro-2-(isopropyl(methyl)carbamoyl)phenyl)-1H-pyrrolo[2,3-c]pyridin-3-yl)piperidin-1-yl)ethyl)cyclohexyl)carbamate]	< 100	100 to 1000	–

More lines, now with the values ahead:

IC50 [1] [nM]	EC50 ([2]; Homo sapiens, MV4-11, 72 h) [nM]	EC50 ([2]; 72 h) [nM]	SMILES
< 100	≥ 1000	–	CC(C)N(C)C(=O)c1cc(F)ccc1-n1cc(C2CCC(N(C)C)CC2)c2ccncc21 (single isomer, unassigned) [Example 54, 2-(3-(4-(dimethylamino)cyclohexyl)-1H-pyrrolo[2,3-c]pyridin-1-yl)-5-fluoro-N-isopropyl-N-methylbenzamide]
< 100	–	100 to 1000	CC(C)N(C)C(=O)c1cc(F)ccc1-n1cc(C2CCC(NCc3ccc4[nH]c(=O)[nH]c4c3)CC2)c2ccncc21 (single isomer, unassigned) [Example 60, 5-fluoro-N-isopropyl-N-methyl-2-(3-(4-(((2-oxo-2,3-dihydro-1H-benzo[d]imidazol-5-yl)methyl)amino)cyclohexyl)-1H-pyrrolo[2,3-c]pyridin-1-yl)benzamide]
< 100	–	≥ 1000	CC(C)N(C)C(=O)c1cc(F)ccc1-n1cc(C2CCC(NCc3ccc4[nH]c(=O)[nH]c4c3)CC2)c2ccncc21 (single isomer, unassigned) [Example 60A, 5-fluoro-N-isopropyl-N-methyl-2-(3-(4-(((2-oxo-2,3-dihydro-1H-benzo[d]imidazol-5-yl)methyl)amino)cyclohexyl)-1H-pyrrolo[2,3-c]pyridin-1-yl)benzamide]
< 100	–	100 to 1000	CC(C)N(C)C(=O)c1cc(F)ccc1-n1cc(C2CCC(NCC3CCC(NS(C)(=O)=O)CC3)CC2)c2ccncc21 (single isomer, unassigned) [Example 61, 5-fluoro-N-isopropyl-N-methyl-2-(3-(4-(((4-(methylsulfonamido)cyclohexyl)methyl)amino)cyclohexyl)-1H-pyrrolo[2,3-c]pyridin-1-yl)benzamide]
< 100	–	≥ 1000	CC(C)N(C)C(=O)c1cc(F)ccc1-n1cc(C2CCC(NCC3CCC(NS(C)(=O)=O)CC3)CC2)c2ccncc21 (single isomer, unassigned) [Example 62, 5-fluoro-N-isopropyl-N-methyl-2-(3-(4-(((4-(methylsulfonamido)cyclohexyl)methyl)amino)cyclohexyl)-1H-pyrrolo[2,3-c]pyridin-1-yl)benzamide]
< 100	< 100	–	CC(C)N(C)C(=O)c1cc(F)ccc1-n1cc(C2CCC(N(C)CC3CCC(NS(C)(=O)=O)CC3)CC2)c2ccncc21 (single isomer, unassigned) [Example 128, 5-fluoro-N-isopropyl-N-methyl-2-(3-(4-(methyl((4-(methylsulfonamido)cyclohexyl)methyl)amino)cyclohexyl)-1H-pyrrolo[2,3-c]pyridin-1-yl)benzamide]
< 100	< 100	–	Cc1c(CN2CCC(c3cn(-c4ccc(F)cc4C(=O)N(C)C(C)C)c4cnccc34)CC2)ccc2[nH]c(C#N)cc12 [Example 2, 2-(3-(1-((2-cyano-4-methyl-1H-indol-5-yl)methyl)piperidin-4-yl)-1H-pyrrolo[2,3-c]pyridin-1-yl)-5-fluoro-N-isopropyl-N-methylbenzamide]
< 100	≥ 1000	–	CC(C)N(C)C(=O)c1cc(F)ccc1-n1cc(C2CCN(CC3CCOCC3)CC2)c2ccncc21 [Example 4, 5-fluoro-N-isopropyl-N-methyl-2-(3-(1-((tetrahydro-2H-pyran-4-yl)methyl)piperidin-4-yl)-1H-pyrrolo[2,3-c]pyridin-1-yl)benzamide]
